Data from patent US20250064941A1, “SIGLEC LIGANDS, CONJUGATES, AND METHODS OF USE THEREOF” (Osprey Biopharmaceuticals, Inc., priority 2023, published 2025).

Key:
[1] = target: T1, mouse Siglec-2-Fc-Avi (CD22) (Mus musculus, UniProt P35329); experiment: SPR binding affinity to mouse CD22; conditions: steady-state analysis
T1 construct: made in house
T1 sequence (P35329 22-708 limits assumed): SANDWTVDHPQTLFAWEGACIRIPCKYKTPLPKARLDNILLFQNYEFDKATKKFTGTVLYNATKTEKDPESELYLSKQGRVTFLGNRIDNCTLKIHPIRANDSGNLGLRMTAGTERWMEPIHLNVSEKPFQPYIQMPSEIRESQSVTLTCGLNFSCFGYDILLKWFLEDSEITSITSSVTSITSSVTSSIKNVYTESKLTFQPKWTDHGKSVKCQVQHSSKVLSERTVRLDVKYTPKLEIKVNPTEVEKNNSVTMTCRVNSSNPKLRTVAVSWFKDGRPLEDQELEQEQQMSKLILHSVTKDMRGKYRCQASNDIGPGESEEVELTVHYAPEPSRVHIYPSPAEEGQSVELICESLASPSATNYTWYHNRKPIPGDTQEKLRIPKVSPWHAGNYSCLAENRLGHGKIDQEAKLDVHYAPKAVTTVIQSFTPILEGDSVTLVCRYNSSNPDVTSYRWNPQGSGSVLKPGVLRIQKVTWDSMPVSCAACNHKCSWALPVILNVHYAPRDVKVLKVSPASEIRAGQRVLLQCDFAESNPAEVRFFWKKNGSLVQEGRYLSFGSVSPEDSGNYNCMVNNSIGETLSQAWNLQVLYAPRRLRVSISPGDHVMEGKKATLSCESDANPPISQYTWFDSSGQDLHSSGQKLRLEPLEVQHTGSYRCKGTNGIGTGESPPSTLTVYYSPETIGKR
How it was run: (§1)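 SialoExo pretreatment, 4 h 37° C.; biotinylated CD22 on SA chip, Biacore 8K. Buffer 10 mM HEPES, 150 mM NaCl, 0.05% Tween-20, pH 7.5, 1% DMSO. Dissociation 120 s; solvent-corrected; steady-state KD.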

[2] = target: T2, human Siglec-2/CD22 protein (Homo sapiens, UniProt P20273); experiment: SPR binding affinity to human CD22; conditions: steady-state analysis
T2 construct: purchased Acro Biosystems SI2-H82E3
T2 sequence (P20273 20-847): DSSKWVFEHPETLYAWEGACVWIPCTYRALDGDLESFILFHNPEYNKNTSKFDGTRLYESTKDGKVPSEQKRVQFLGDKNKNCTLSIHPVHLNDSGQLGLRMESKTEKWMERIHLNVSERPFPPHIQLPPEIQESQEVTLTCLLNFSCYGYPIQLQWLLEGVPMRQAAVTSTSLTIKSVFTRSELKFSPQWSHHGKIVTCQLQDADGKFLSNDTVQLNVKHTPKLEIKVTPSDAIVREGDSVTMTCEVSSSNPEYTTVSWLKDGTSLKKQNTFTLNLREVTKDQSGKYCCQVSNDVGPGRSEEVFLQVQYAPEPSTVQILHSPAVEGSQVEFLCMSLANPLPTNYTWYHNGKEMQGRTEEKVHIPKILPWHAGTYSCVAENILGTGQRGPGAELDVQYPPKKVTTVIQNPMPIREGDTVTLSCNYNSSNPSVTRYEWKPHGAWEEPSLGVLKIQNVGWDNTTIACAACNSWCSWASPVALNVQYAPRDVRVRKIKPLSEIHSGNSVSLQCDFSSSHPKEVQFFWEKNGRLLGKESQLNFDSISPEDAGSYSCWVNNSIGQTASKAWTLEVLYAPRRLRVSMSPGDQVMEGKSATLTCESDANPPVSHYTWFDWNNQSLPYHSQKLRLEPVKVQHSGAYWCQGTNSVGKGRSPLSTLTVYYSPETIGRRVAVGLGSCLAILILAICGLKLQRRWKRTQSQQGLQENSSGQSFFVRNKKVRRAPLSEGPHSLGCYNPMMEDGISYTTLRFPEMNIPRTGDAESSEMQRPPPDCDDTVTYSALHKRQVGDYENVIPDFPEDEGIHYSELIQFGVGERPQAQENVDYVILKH
How it was run: as §1

[3] = target: cynomolgus Siglec-2/CD22 (Macaca fascicularis, UniProt A0A2K5WCZ6); experiment: biochemical; type: binding; conditions: SPR, steady-state analysis; read-out: Affinity cyno CD22
Chain of cynomolgus Siglec-2/CD22 (A0A2K5WCZ6 entry or part of it): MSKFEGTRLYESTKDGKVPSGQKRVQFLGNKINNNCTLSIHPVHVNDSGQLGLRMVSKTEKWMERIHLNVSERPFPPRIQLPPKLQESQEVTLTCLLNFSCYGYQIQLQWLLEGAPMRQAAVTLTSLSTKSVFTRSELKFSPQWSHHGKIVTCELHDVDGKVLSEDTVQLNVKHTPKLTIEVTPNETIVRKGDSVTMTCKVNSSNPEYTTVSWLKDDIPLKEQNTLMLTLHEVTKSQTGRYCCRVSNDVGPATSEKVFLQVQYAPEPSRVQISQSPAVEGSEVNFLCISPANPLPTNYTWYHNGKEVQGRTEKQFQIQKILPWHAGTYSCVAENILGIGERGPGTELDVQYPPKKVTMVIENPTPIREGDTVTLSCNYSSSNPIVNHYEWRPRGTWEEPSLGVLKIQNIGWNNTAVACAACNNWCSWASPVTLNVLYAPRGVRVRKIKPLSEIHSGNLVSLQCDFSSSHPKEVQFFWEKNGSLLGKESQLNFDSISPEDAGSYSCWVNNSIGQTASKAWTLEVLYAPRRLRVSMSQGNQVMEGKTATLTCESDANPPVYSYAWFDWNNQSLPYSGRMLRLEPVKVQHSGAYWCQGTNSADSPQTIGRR
How it was run: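 Compound binding measured by steady-state SPR analysis, 120 s dissociation, in HEPES-NaCl-Tween buffer pH 7.5 containing 1% DMSO, DMSO solvent-corrected. Surface: cyno CD22, sialic acids first stripped by SialoExo for 4 h at 37° C., then amine-coupled onto CM5.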

SMILES | Kd [1] [nM] | Kd [2] [nM] | Kd [3] [nM]
C#CCCOc1ccc(CO[C@]2(C(=O)O)C[C@H](O)[C@@H](NC(C)=O)[C@H]([C@H](O)[C@H](O)CNC(=O)c3cccc(Oc4ccccc4)c3)O2)cc1 [Compound 22, (2R,4S,5R,6R)-5-acetamido-2-((4-(but-3-yn-1-yloxy)benzyl)oxy)-6-((1R,2R)-1,2-dihydroxy-3-(3-phenoxybenzamido)propyl)-4-hydroxytetrahydro-2H-pyran-2-carboxylic acid] | > 10000 | < 1000 | 1000 to 10000
C#CCCCCCCS[C@]1(C(=O)O)C[C@H](O)[C@@H](NC(=O)CO)[C@H]([C@H](O)[C@H](O)CNC(=O)Cc2ccc(-c3ccc(O)cc3)cc2)O1 [Compound 49, (2S,4S,5R,6R)-6-((1R,2R)-1,2-dihydroxy-3-(2-(4′-hydroxy-[1,1′-biphenyl]-4-yl)acetamido)propyl)-4-hydroxy-5-(2-hydroxyacetamido)-2-(oct-7-yn-1-ylthio)tetrahydro-2H-pyran-2-carboxylic acid] | < 1000 | < 1000 | < 1000
C#CCOc1cccc(-c2cn([C@]3(C(=O)O)C[C@H](O)[C@@H](NC(=O)CO)[C@H]([C@H](O)[C@H](O)CNC(=O)Cc4ccc(-c5ccc(O)cc5)cc4)O3)nn2)c1 [Compound 60, (2R,4S,5R,6R)-6-((1R,2R)-1,2-dihydroxy-3-(2-(4′-hydroxy-[1,1′-biphenyl]-4-yl)acetamido)propyl)-4-hydroxy-5-(2-hydroxyacetamido)-2-(4-(3-(prop-2-yn-1-yloxy)phenyl)-1H-1,2,3-triazol-1-yl)tetrahydro-2H-pyran-2-carboxylic acid] | 1000 to 10000 | 1000 to 10000 | 1000 to 10000
C#CCOCCCCCCO[C@]1(C(=O)O)C[C@H](O)[C@@H](NC(=O)CN(C)C)[C@H]([C@H](O)[C@H](O)CNC(=O)Cc2ccc(Cl)cc2)O1 [Compound 25, (2R,4S,5R,6R)-6-((1R,2R)-3-(2-(4-chlorophenyl)acetamido)-1,2-dihydroxypropyl)-5-(2-(dimethylamino)acetamido)-4-hydroxy-2-((6-(prop-2-yn-1-yloxy)hexyl)oxy)tetrahydro-2H-pyran-2-carboxylic acid] | 1000 to 10000 | > 10000 | 1000 to 10000
C#CCOCCOCCO[C@]1(C(=O)NS(C)(=O)=O)C[C@H](O)[C@@H](NC(=O)CO)[C@H]([C@H](O)[C@H](O)CNC(=O)Cc2ccc(-c3ccc(O)cc3)cc2)O1 [Compound 65, (2R,4S,5R,6R)-6-((1R,2R)-1,2-dihydroxy-3-(2-(4′-hydroxy-[1,1′-biphenyl]-4-yl)acetamido)propyl)-4-hydroxy-5-(2-hydroxyacetamido)-N-(methylsulfonyl)-2-(2-(2-(prop-2-yn-1-yloxy)ethoxy)ethoxy)tetrahydro-2H-pyran-2-carboxamide] | > 10000 | > 10000 | > 10000
C#CCOCCOCCO[C@]1(C(=O)O)C[C@H](O)[C@@H](NC(=O)CO)[C@H]([C@H](O)[C@H](O)CNC(=O)Cc2ccc(-c3ccc4[nH]ccc4c3)cc2)O1 [Compound 4, (2R,4S,5R,6R)-6-((1R,2R)-3-(2-(4-(1H-indol-5-yl)phenyl)acetamido)-1,2-dihydroxypropyl)-4-hydroxy-5-(2-hydroxyacetamido)-2-(2-(2-(prop-2-yn-1-yloxy)ethoxy)ethoxy)tetrahydro-2H-pyran-2-carboxylic acid] | < 1000 | < 1000 | < 1000
C#CCOCCOCCOCCOCCC(=O)NCCOCCOCCO[C@]1(C(=O)O)C[C@H](O)[C@@H](NC(=O)CO)[C@H]([C@H](O)[C@H](O)CNC(=O)Cc2ccc(Cl)cc2)O1 [Compound 111, (2R,4S,5R,6R)-6-((1R,2R)-3-(2-(4-chlorophenyl)acetamido)-1,2-dihydroxypropyl)-4-hydroxy-5-(2-hydroxyacetamido)-2-((10-oxo-3,6,13,16,19,22-hexaoxa-9-azapentacos-24-yn-1-yl)oxy)tetrahydro-2H-pyran-2-carboxylic acid] | 1000 to 10000 | 1000 to 10000 | < 1000

Continued, values first:

Kd [1] [nM] | Kd [2] [nM] | Kd [3] [nM] | SMILES
< 1000 | < 1000 | < 1000 | C#CCNc1c(NCCCCCCO[C@]2(C(=O)O)C[C@H](O)[C@@H](NC(=O)CO)[C@H]([C@H](O)[C@H](O)CNC(=O)Cc3ccc(-c4ccccc4)cc3)O2)c(=O)c1=O [Compound 221, (2R,4S,5R,6R)-6-((1R,2R)-3-(2-([1,1′-biphenyl]-4-yl)acetamido)-1,2-dihydroxypropyl)-2-((6-((3,4-dioxo-2-(prop-2-yn-1-ylamino)cyclobut-1-en-1-yl)amino)hexyl)oxy)-4-hydroxy-5-(2-hydroxyacetamido)tetrahydro-2H-pyran-2-carboxylic acid]
1000 to 10000 | 1000 to 10000 | 1000 to 10000 | C#CCCOc1ccc(CO[C@]2(C(=O)O)C[C@H](O)[C@@H](NC(=O)CO)[C@H]([C@H](O)[C@H](O)CNC(=O)Cc3cccc(N4CCOCC4)c3)O2)cc1 [Compound 140, (2R,4S,5R,6R)-2-((4-(but-3-yn-1-yloxy)benzyl)oxy)-6-((1R,2R)-1,2-dihydroxy-3-(2-(3-morpholinophenyl)acetamido)propyl)-4-hydroxy-5-(2-hydroxyacetamido)tetrahydro-2H-pyran-2-carboxylic acid]
< 1000 | < 1000 | 1000 to 10000 | C#CCCOc1ccc(CO[C@]2(C(=O)O)C[C@H](O)[C@@H](NC(=O)CO)[C@H]([C@H](O)[C@H](O)CNC(=O)Cc3ccc(Cl)cc3)O2)cc1 [Compound 124, (2R,4S,5R,6R)-2-((4-(but-3-yn-1-yloxy)benzyl)oxy)-6-((1R,2R)-3-(2-(4-chlorophenyl)acetamido)-1,2-dihydroxypropyl)-4-hydroxy-5-(2-hydroxyacetamido)tetrahydro-2H-pyran-2-carboxylic acid]
1000 to 10000 | < 1000 | < 1000 | C#CCOCCCCCCO[C@]1(C(=O)O)C[C@H](O)[C@@H](Nc2c(N)c(=O)c2=O)[C@H]([C@H](O)[C@H](O)CNC(=O)Cc2ccc(Cl)cc2)O1 [Compound 190, (2R,4S,5R,6R)-5-((2-amino-3,4-dioxocyclobut-1-en-1-yl)amino)-6-((1R,2R)-3-(2-(4-chlorophenyl)acetamido)-1,2-dihydroxypropyl)-4-hydroxy-2-((6-(prop-2-yn-1-yloxy)hexyl)oxy)tetrahydro-2H-pyran-2-carboxylic acid]
< 1000 | < 1000 | < 1000 | CC(=O)NCCOCCOCCOCCOCCNc1c(NCCCCCCO[C@]2(C(=O)O)C[C@H](O)[C@@H](NC(=O)CO)[C@H]([C@H](O)[C@H](O)CNC(=O)Cc3ccc(Cl)cc3)O2)c(=O)c1=O [Compound 240, (2R,4S,5R,6R)-6-((1R,2R)-3-(2-(4-chlorophenyl)acetamido)-1,2-dihydroxypropyl)-2-((6-((3,4-dioxo-2-((2-oxo-6,9,12,15-tetraoxa-3-azaheptadecan-17-yl)amino)cyclobut-1-en-1-yl)amino)hexyl)oxy)-4-hydroxy-5-(2-hydroxyacetamido) tetrahydro-2H-pyran-2-carboxylic acid]
